The source of these data is US10428083B2, “Heterocyclylmethyl-thienouracile as antagonists of the adenosine-A2B-receptor” (BAYER PHARMA AKTIENGESELLSCHAFT, priority 2015, dated 2019).

In the test the target is human adenosine A2b receptor (Homo sapiens (Human), UniProt P29275). Briefly: Cellular in vitro reporter gene test for A2b receptor activity (CHO-K1, CRE-luciferase, NECA stimulation). Format: cell-based. The settings on record: recombinant CHO-K1 cell line, CRE-luciferase reporter, antagonism of EC50 concentration of NECA; in some cases means of several determinations, rounded to two significant figures; read-out: A2b receptor IC50. The gist of the method:
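CHO-K1 cells with CRE-driven luciferase; antagonists co-incubated with NECA at its EC50, determined in a pre-experiment on each test day. Luciferase read by luminescence 3 h after NECA addition.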

pIC50: −log10 of the molar value.

human adenosine A2b receptor, sequence (P29275 whole entry): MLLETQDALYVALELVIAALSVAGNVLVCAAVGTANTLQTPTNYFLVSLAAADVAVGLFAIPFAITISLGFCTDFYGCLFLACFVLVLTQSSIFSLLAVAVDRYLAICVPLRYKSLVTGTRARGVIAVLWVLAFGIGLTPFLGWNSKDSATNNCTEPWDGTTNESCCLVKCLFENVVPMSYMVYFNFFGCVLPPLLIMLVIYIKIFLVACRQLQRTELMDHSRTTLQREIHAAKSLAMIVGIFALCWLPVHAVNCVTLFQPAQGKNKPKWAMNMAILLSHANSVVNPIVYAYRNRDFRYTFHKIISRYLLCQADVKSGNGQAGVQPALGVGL

As to `Cc1c(Cn2nc[nH]c2=O)sc2c1c(=O)n(CC(C)(C)C)c(=O)n2CC1CCCO1` (single isomer, unassigned) [Example 430, 3-(2,2-Dimethylpropyl)-5-methyl-6-[(5-oxo-4,5-dihydro-1H-1,2,4-triazol-1-yl)methyl]-1-(tetrahydrofuran-2-ylmethyl)thieno[2,3-d]pyrimidine-2,4(1H,3H)-dione], the pIC50 (as a rule, the negative decadic logarithm of the IC50, by convention in mol/L) was 6.55.

Consider `CCn1c(=O)c2c(C)c(CN3CCNC3=NC(=O)OC)sc2n(CC2CCCO2)c1=O` (single isomer, unassigned) [Example 375, Methyl [1-{[3-ethyl-5-methyl-2,4-dioxo-1-(tetrahydrofuran-2-ylmethyl)-1,2,3,4-tetrahydrothieno[2,3-d]pyrimidin-6-yl]methyl}imidazolidin-2-ylidene]carbamate], for which the pIC50 is 8.20.

Regarding `COCCn1c(=O)c2c(C)c(CN3CCNC3=NC(=O)OC)sc2n(CC2CCCO2)c1=O` (single isomer, unassigned) [Example 391, Methyl [1-f{[3-(2-methoxyethyl)-5-methyl-2,4-dioxo-1-(tetrahydrofuran-2-ylmethyl)-1,2,3,4-tetrahydrothieno[2,3-d]pyrimidin-6-yl]methyl}imidazolidin-2-ylidene]carbamate], the pIC50 is 7.47.

On to `COCCn1c(=O)c2c(C)c(Cn3[nH]ccc3=O)sc2n(CC2CCCO2)c1=O` (single isomer, unassigned) [Example 291, 3-(2-Methoxyethyl)-5-methyl-6-[(5-oxo-2,5-dihydro-1H-pyrazol-1-yl)methyl]-1-(tetrahydrofuran-2-ylmethyl)thieno[2,3-d]pyrimidine-2,4(1H,3H)-dione], for which the pIC50 was 6.72.

Turning to `COC(=O)N=C1NCCN1Cc1sc2c(c1C)c(=O)n(CC(C)OC)c(=O)n2CCC(F)(F)F` (racemic) [Example 472, Methyl [1-{[3-(2-methoxypropyl)-5-methyl-2,4-dioxo-1-(3,3,3-trifluoropropyl)-1,2,3,4-tetrahydrothieno[2,3-d]pyrimidin-6-yl]methyl}imidazolidin-2-ylidene]carbamate], the pIC50 is 8.17.

Consider `Cc1c(CN2CCNC2=NC#N)sc2c1c(=O)n(CC(C)(C)C)c(=O)n2CC1CCCO1` (racemic) [Example 446, [1-{[3-(2,2-Dimethylpropyl)-5-methyl-2,4-dioxo-1-(tetrahydrofuran-2-ylmethyl)-1,2,3,4-tetrahydrothieno[2,3-d]pyrimidin-6-yl]methyl}imidazolidin-2-ylidene]cyanamide], for which the pIC50 was 7.72.

For `CCn1c(=O)c2c(C)c(CN3CCNC3=O)sc2n(CC(C)OC)c1=O` (racemic) [Example 62, 3-Ethyl-1-(2-methoxypropyl)-5-methyl-6-[(2-oxoimidazolidin-1-yl)methyl]thieno[2,3-d]pyrimidine-2,4(1H,3H)-dione (racemate)], the pIC50 was 7.14.

As to `Cc1c(Cn2[nH]ccc2=O)sc2c1c(=O)n(CC(F)(F)F)c(=O)n2CC1CCCO1` (single isomer, unassigned) [Example 285, 5-Methyl-6-[(5-oxo-2,5-dihydro-1H-pyrazol-1-yl)methyl]-1-(tetrahydrofuran-2-ylmethyl)-3-(2,2,2-trifluoroethyl)thieno[2,3-d]pyrimidine-2,4(1H,3H)-dione], the negative-log IC50 (pIC50) was 7.04.

`COC(=O)N=C1NCCN1Cc1sc2c(c1C)c(=O)n(CC(F)(F)F)c(=O)n2CC1CCCO1` (single isomer, unassigned) [Example 469, Methyl [1-{[5-methyl-2,4-dioxo-1-(tetrahydrofuran-2-ylmethyl)-3-(2,2,2-trifluoroethyl)-1,2,3,4-tetrahydrothieno[2,3-d]pyrimidin-6-yl]methyl}imidazolidin-2-ylidene]carbamate]: the pIC50 was 8.06.

Regarding `CCn1c(=O)c2c(C)c(CN3CCNC3=S)sc2n(CC2CCCO2)c1=O` (single isomer, unassigned) [Example 140, 3-Ethyl-5-methyl-1-(tetrahydrofuran-2-ylmethyl)-6-[(2-thioxoimidazolidin-1-yl)methyl]thieno[2,3-d]pyrimidine-2,4(1H,3H)-dione], the pIC50 is 8.32.

For `Cc1c(Cn2nc[nH]c2=O)sc2c1c(=O)n(C(C)C)c(=O)n2CCCF` [Example 423, 1-(3-Fluoropropyl)-3-isopropyl-5-methyl-6-[(5-oxo-4,5-dihydro-1H-1,2,4-triazol-1-yl)methyl]thieno[2,3-d]pyrimidine-2,4(1H,3H)-dione], the pIC50 was 7.26.

Take `Cc1c(CN2CCNC2=O)sc2c1c(=O)n(CC(F)F)c(=O)n2CC1CCCO1` (single isomer, unassigned) [Example 220, 3-(2,2-Difluoroethyl)-5-methyl-6-[(2-oxoimidazolidin-1-yl)methyl]-1-(tetrahydrofuran-2-ylmethyl)thieno[2,3-d]pyrimidine-2,4(1H,3H)-dione]: the negative-log IC50 (pIC50) was 7.82.

`COCCn1c(=O)n(CC(C)(C)C)c(=O)c2c(C)c(Cn3nc[nH]c3=O)sc21` [Example 428, 3-(2,2-Dimethylpropyl)-1-(2-methoxyethyl)-5-methyl-6-[(5-oxo-4,5-dihydro-1H-1,2,4-triazol-1-yl)methyl]thieno[2,3-d]pyrimidine-2,4(1H,3H)-dione]: the negative logarithm of the IC50 (pIC50) was 6.92.

For the compound `Cc1c(CN2CCNC2=O)sc2c1c(=O)n(CC(F)(F)F)c(=O)n2CC1CCO1` (racemic) [Example 206, 5-Methyl-1-(oxetan-2-ylmethyl)-6-[(2-oxoimidazolidin-1-yl)methyl]-3-(2,2,2-trifluoroethyl)thieno[2,3-d]pyrimidine-2,4(1H,3H)-dione], the negative-log IC50 (pIC50) is 7.96.

On to `CCCCn1c(=O)n(CC)c(=O)c2c(C)c(CN3CCNC3=O)sc21` [Example 78, 1-Butyl-3-ethyl-5-methyl-6-[(2-oxoimidazolidin-1-yl)methyl]thieno[2,3-d]pyrimidine-2,4(1H,3H)-dione], for which the negative logarithm of the IC50 (pIC50) is 8.92.

Consider `COC(=O)N=C1NCCN1Cc1sc2c(c1C)c(=O)n(C(C)C(F)(F)F)c(=O)n2CCC(F)(F)F` (racemic) [Example 470, Methyl [1-{[5-methyl-2,4-dioxo-3-(1,1,1-trifluoropropan-2-yl)-1-(3,3,3-trifluoropropyl)-1,2,3,4-tetrahydrothieno[2,3-d]pyrimidin-6-yl]methyl}imidazolidin-2-ylidene]carbamate], for which the negative-log IC50 (pIC50) is 8.29.

On to `COCCn1c(=O)n(CC2CCCO2)c(=O)c2c(C)c(CN3CCNC3=O)sc21` (racemic) [Example 332, 1-(2-Methoxyethyl)-5-methyl-6-[(2-oxoimidazolidin-1-yl)methyl]-3-(tetrahydrofuran-2-ylmethyl)thieno[2,3-d]pyrimidine-2,4(1H,3H)-dione], for which the pIC50 is 6.96.

`CCn1c(=O)c2c(C)c(CN3CCNC3=S)sc2n(CC2CCCCO2)c1=O` (racemic) [Example 36, 3-Ethyl-5-methyl-1-(tetrahydro-2H-pyran-2-ylmethyl)-6-[(2-thioxoimidazolidin-1-yl)methyl]thieno[2,3-d]pyrimidine-2,4(1H,3H)-dione (racemate)]: the pIC50 is 7.42.

With `COCCn1c(=O)n(CC(C)(C)C)c(=O)c2c(C)c(CN3CCNC3=NC#N)sc21` [Example 445, [1-{[3-(2,2-Dimethylpropyl)-1-(2-methoxyethyl)-5-methyl-2,4-dioxo-1,2,3,4-tetrahydrothieno[2,3-d]pyrimidin-6-yl]methyl}imidazolidin-2-ylidene]cyanamide], the pIC50 is 7.92.
